Each structure is given as a SMILES string.

The text below walks through data of ChEMBL document CHEMBL1926590, “Discovery of a novel class of non-ATP site DFG-out state p38 inhibitors utilizing computationally assisted virtual fragment-based drug design (vFBDD)” (Bioorg Med Chem Lett, 2011).

A short description of series [1]: Oral bioavailability in Sprague-Dawley rat at 4 mg/kg. The format is ADME, organism-based. To be noted: in vivo.
The nature of series [2]: Apparent permeability across apical to basolateral side in human Caco2 cells by UPLC analysis. To be noted: Caco-2. The class given is ADME, cell-based.
Series [3] is described as follows: Apparent permeability across basolateral to apical side in human Caco2 cells by UPLC analysis. The class given is ADME, cell-based. To be noted: Caco-2.
Series [4] in a line: Half life in human hepatocytes. The format is ADME, cell-based, Liver, Hepatocyte.

Regarding `CN(C)CCN1CCN(C(=O)c2cc(C(C)(C)C)sc2NC(=O)Nc2cccc(Cl)c2Cl)CCC1=O`, the bioavailability in series [1] stood at 33%. Besides, the Papp A→B in series [2] was 3.9 nm/s. In series [3], the Papp B→A was determined as 53 nm/s. The half-life in series [4] was 5.67 h.
